Legend:
A549 cells = experiment: Cell cycle analysis of A549 cells by flow cytometry; format: cell-based, human; details: IC50 concentration, 24 h; for cells at S phase: control 4.99%; for cells at G2/M phase: control 14.06%
Protocol: We next investigated whether the treatment with AMTs 1–8 caused any cell cycle-related event, which inhibit the viability of A549 cell line. Thus, the cells were treated for 24 h with the AMTs at concentrations of IC50 (Table 1), or with colchicine (at 0.2 μg/mL) as the positive control, and then subjected to flow cytometry analysis to evaluate the distribution of cells in the different phases of the cell cycle (Figure 5A).
Figure 5 Effects of meroterpenoids 1–8 on cell cycle distribution of A549 cells. Cells were incubated with IC50 doses of the compounds for 24 h. (A) Cells were harvested to measure the cell cycle distribution by flow cytometry. (B) Quantitative analysis of cell cycle distribution after treatment. Data represent mean ±SE from three independent experiments. * p < 0.05, ** p < 0.01, and *** p < 0.001 compared with the untreated group (control).
For cell cycle analysis by flow cytometry, A549 cells were seeded at 1 × 10^6 cells/well in 6-well plates and incubated for 24 h followed by treatment with the AMTs, at concentration of IC50, and further incubation for 24 h. Colchicine (final concentration of 0.2 μg/mL) was used as positive control. Cells were harvested after trypsinization and washed once with PBS. Then, the cells were centrifuged at 1500 rpm for 5 min (25 °C), the pellet was fixed with 1 mL of ice-cold 70% ethanol, and the samples were stored at −4 °C overnight. Then the cells were washed with PBS and incubated in the darkness with PBS containing 5 mg/mL of RNase A for 48 h at 4 °C. Subsequently, 50 µL of propidium iodide (0.1 mg/mL) was added and the cells were incubated for 1 h at 4 °C. The relative DNA content per cell was analyzed using a Beckman Coulter Cytomics FC 500 MPL (Beckman Coulter Inc, San Diego, CA, USA). The data acquisition was performed with the DML program. The analysis of the acquired data was performed with the CXP cytometer.

[1] = Cytotoxicity against normal lung cells MRC-5 (MTT assay); format: cell-based, human; details: human, MRC-5 fetal lung fibroblast cells, 50 μg/mL, 72 h, read-out: cell viability of normal cells
Protocol: The effect of the AMTs 1–8 on cell viability was investigated in the human lung cancer cell line A549. […] It has been reported that compounds with SI value higher or equal to 2.0 are potentially selective. […] It is worth noting that after treatment with 50 μg/mL of these two AMTs, the cell viability was lower than 15% for cancer cells and higher than 55% for normal cells.
Figure 4 Effects of different concentrations of meroterpenoids 1–8 on the viability of human lung cancer cell line A549 and the human fetal lung fibroblastic MRC-5 cells, using MTT assay after 72 h of treatment. Data are mean ±SE of three independent experiments. * p < 0.05, ** p < 0.01 and […] between the two cell lines.
Cell proliferation was evaluated by a modified MTT assay, which measures the mitochondrial dehydrogenase activity. A total of 5 × 10^3 cells/well (MRC-5 cells) and 3 × 10^3 cells/well (A549 cells) were cultured in a 96-well plate for 24 h. Then, treatments were added to the cell culture. After 72 h of incubation, the medium was removed and 125 µL of MTT (1 mg/mL in medium) was added to each well and incubated for 4 h. Next, 80 µL of 20% sodium dodecyl sulphate (SDS) was added and incubated for 5 h at 37 °C. The optical density of each well was measured at 540 nm (Synergy HT multiwell plate spectrophotometer reader, BioTek Instruments Inc., Winooski, VT, USA) to quantify cell viability. Cell viability (%) was calculated according to the following formula: % viability = (absorbance of compounds treated cells/absorbance of control cells) × 100. The degree of selectivity of the compounds was expressed by its SI value. Each SI value was calculated using the formula: SI = IC50 normal cell/IC50 cancer cell.

Row | Structure (SMILES) | cells at S phase (A549 cells) | cells at G2/M phase (A549 cells) | viability at 72 h, 50 µg/mL [1] | cells at G0/G1 phase (A549 cells; control 71.40%)
1 | COc1c(C)cc(O)cc1C/C=C(\C)CC(=O)/C=C(/C)CCCC(C)(O)C(=O)/C=C/C(C)(C)O (centres unmarked) [Compound 1, usneoidone Z] | 17.75% | 31.15% |  | 
2 | COc1c(C)cc(O)cc1C/C=C(\C)CC(=O)/C=C(\C)CCCC(C)(O)C(=O)/C=C/C(C)(C)O (centres unmarked) [Compound 2, 11-hydroxy-1’-O-methylamentadione] | 17.90% | 31.62% |  | 
3 | COc1c(C)cc(O)cc1C/C=C(\C)CC(=O)/C=C(\C)CCCC(C)=O [Compound 3, cystomexicone B] |  |  | > 55% | 
4 | COc1c(C)cc(O)cc1C/C=C(\C)CC(=O)/C=C(/C)CCCC(C)=O [Compound 4, cystomexicone A] |  |  | > 55% | 
5 | COc1c(C)cc(O)cc1/C=C/C(C)(O)CC(=O)/C=C(/C)CCCC(C)C(=O)/C=C/C(C)(C)O (centres unmarked) [Compound 7, cystodione A] | 13.69% | 40.19% |  | 49.31%
6 | COc1c(C)cc(O)cc1/C=C/C(C)(O)CC(=O)/C=C(\C)CCCC(C)C(=O)/C=C/C(C)(C)O (centres unmarked) [Compound 8, cystodione B] | 16.73% | 32.50% |  | 

— paper PMC7230911, “Meroterpenoids from the Brown Alga Cystoseira usneoides as Potential Anti-Inflammatory and Lung Anticancer Agents” (Marine Drugs, 2020)
